Data: PubChem BioAssay (NCI)
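Cells were grown in 96-well plates and exposed to each compound for 48 hours at five concentrations; endpoints were interpolated linearly between bracketing concentrations, or set to the highest concentration if not reached. Abbreviation: GI50, concentration required for 50% inhibition of growth. TGI marks complete inhibition of growth.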

Legend:
Assay in all cases: NCI tumour cell line growth inhibition, 48 h
786-0 renal = system: 786-0 renal
A498 renal = system: A498 renal
A549 NSCLC = system: A549 NSCLC
ACHN renal = system: ACHN renal
BT-549 breast = system: BT-549 breast
CAKI-1 renal = system: CAKI-1 renal
CCRF-CEM leukemia = system: CCRF-CEM leukemia
COLO 205 colon = system: COLO 205 colon
DU-145 prostate = system: DU-145 prostate
EKVX NSCLC = system: EKVX NSCLC
HCC-2998 colon = system: HCC-2998 colon
HCT-116 colon = system: HCT-116 colon
HCT-15 colon = system: HCT-15 colon
HL-60(TB) leukemia = system: HL-60(TB) leukemia
HOP-62 NSCLC = system: HOP-62 NSCLC
HOP-92 NSCLC = system: HOP-92 NSCLC
HS 578T breast = system: HS 578T breast
HT29 colon = system: HT29 colon
IGROV1 ovarian = system: IGROV1 ovarian
K-562 leukemia = system: K-562 leukemia
KM12 colon = system: KM12 colon
LOX IMVI melanoma = system: LOX IMVI melanoma
MALME-3M melanoma = system: MALME-3M melanoma
MCF7 breast = system: MCF7 breast
MDA-MB-231 breast = system: MDA-MB-231 breast
MDA-MB-435 = system: MDA-MB-435
MOLT-4 leukemia = system: MOLT-4 leukemia
NCI-H226 lung = system: NCI-H226 lung
NCI-H23 lung = system: NCI-H23 lung
NCI-H460 lung = system: NCI-H460 lung
NCI-H522 lung = system: NCI-H522 lung
NCI/ADR-RES ovarian = system: NCI/ADR-RES ovarian
OVCAR-3 ovarian = system: OVCAR-3 ovarian
OVCAR-4 ovarian = system: OVCAR-4 ovarian
OVCAR-5 ovarian = system: OVCAR-5 ovarian
OVCAR-8 ovarian = system: OVCAR-8 ovarian
PC-3 prostate = system: PC-3 prostate
RPMI-8226 leukemia = system: RPMI-8226 leukemia
RXF 393 renal = system: RXF 393 renal
SF-268 CNS = system: SF-268 CNS
SF-295 CNS = system: SF-295 CNS
SF-539 CNS = system: SF-539 CNS
SK-MEL-2 melanoma = system: SK-MEL-2 melanoma
SK-MEL-28 melanoma = system: SK-MEL-28 melanoma
SK-MEL-5 melanoma = system: SK-MEL-5 melanoma
SK-OV-3 ovarian = system: SK-OV-3 ovarian
SN12C renal = system: SN12C renal
SNB-19 CNS = system: SNB-19 CNS
SNB-75 CNS = system: SNB-75 CNS
SR leukemia = system: SR leukemia
SW-620 colon = system: SW-620 colon
T-47D breast = system: T-47D breast
TK-10 renal = system: TK-10 renal
U251 CNS = system: U251 CNS
UACC-257 melanoma = system: UACC-257 melanoma
UACC-62 melanoma = system: UACC-62 melanoma
UO-31 renal = system: UO-31 renal

## CC[C@@H](C(=O)[C@@H](C)[C@@H](O)[C@H](C)[C@@H]1O[C@@H]([C@@H](CC)C(=O)N(CC)CC)CC[C@@H]1C)C1O[C@]2(C=CC(=O)[C@]3(CC[C@@](C)([C@H]4CC[C@](O)(CC)[C@H](C)O4)O3)O2)[C@H](C)C[C@@H]1C (some centres undefined)
786-0 renal
  GI50: 3.22 µM
  TGI: 15.9 µM
A498 renal
  GI50: 2.25 µM
  TGI: 7.51 µM
A549 NSCLC
  GI50: 3.21 µM
  TGI: > 100 µM
ACHN renal
  GI50: 2.16 µM
  TGI: 5.19 µM
BT-549 breast
  GI50: 3.29 µM
  TGI: 61.9 µM
CAKI-1 renal
  GI50: 2.18 µM
  TGI: 13.5 µM
CCRF-CEM leukemia
  GI50: 3.01 µM
  TGI: 14.4 µM
COLO 205 colon
  GI50: 2.35 µM
  TGI: 5.4 µM
DU-145 prostate
  GI50: 3.41 µM
  TGI: 12.6 µM
EKVX NSCLC
  GI50: 2.75 µM
  TGI: 18.6 µM
HCC-2998 colon
  GI50: 1.97 µM
  TGI: 4.79 µM
HCT-116 colon
  GI50: 3.18 µM
  TGI: 17.4 µM
HCT-15 colon
  GI50: 2.02 µM
  TGI: 4.51 µM
HL-60(TB) leukemia
  GI50: 2.16 µM
  TGI: 4.95 µM
HOP-62 NSCLC
  GI50: 3.75 µM
  TGI: 20.1 µM
HOP-92 NSCLC
  GI50: 1.35 µM
  TGI: 4.6 µM
HS 578T breast
  GI50: 2.68 µM
  TGI: 16.1 µM
HT29 colon
  GI50: 2.73 µM
  TGI: 15.6 µM
IGROV1 ovarian
  GI50: 2.31 µM
  TGI: 7.71 µM
K-562 leukemia
  GI50: 2.89 µM
  TGI: > 100 µM
KM12 colon
  GI50: 1.82 µM
  TGI: 3.68 µM
LOX IMVI melanoma
  GI50: 1.58 µM
  TGI: 3.17 µM
MALME-3M melanoma
  GI50: 1.93 µM
  TGI: 4.9 µM
MCF7 breast
  GI50: 2.41 µM
  TGI: 8.11 µM
MDA-MB-231 breast
  GI50: 1.69 µM
  TGI: 3.33 µM
MDA-MB-435
  GI50: 2.91 µM
  TGI: 9.95 µM
MOLT-4 leukemia
  GI50: 2.66 µM
  TGI: 8.06 µM
NCI-H226 lung
  GI50: 2.21 µM
  TGI: 6.71 µM
NCI-H23 lung
  GI50: 2.4 µM
  TGI: 6.91 µM
NCI-H460 lung
  GI50: 2.11 µM
  TGI: 4.94 µM
NCI-H522 lung
  GI50: 2.02 µM
  TGI: 6.46 µM
NCI/ADR-RES ovarian
  GI50: 2.82 µM
  TGI: 26.9 µM
OVCAR-3 ovarian
  GI50: 2.34 µM
  TGI: 6.49 µM
OVCAR-4 ovarian
  GI50: 2.96 µM
  TGI: 15.3 µM
OVCAR-5 ovarian
  GI50: 2.85 µM
  TGI: 10.1 µM
OVCAR-8 ovarian
  GI50: 3.55 µM
  TGI: > 100 µM
PC-3 prostate
  GI50: 2.6 µM
  TGI: 24.7 µM
RPMI-8226 leukemia
  GI50: 2.12 µM
  TGI: 6.42 µM
RXF 393 renal
  GI50: 1.66 µM
  TGI: 4.06 µM
SF-268 CNS
  GI50: 3.25 µM
  TGI: 80.9 µM
SF-295 CNS
  GI50: 2.26 µM
  TGI: 6.51 µM
SF-539 CNS
  GI50: 2.26 µM
  TGI: 5.47 µM
SK-MEL-2 melanoma
  GI50: 2.71 µM
  TGI: 7.85 µM
SK-MEL-28 melanoma
  GI50: 4.45 µM
  TGI: 21.3 µM
SK-MEL-5 melanoma
  GI50: 1.69 µM
  TGI: 3.09 µM
SK-OV-3 ovarian
  GI50: 3.87 µM
  TGI: > 100 µM
SN12C renal
  GI50: 2.41 µM
  TGI: 8.64 µM
SNB-19 CNS
  GI50: 3.31 µM
  TGI: > 100 µM
SNB-75 CNS
  GI50: 1.9 µM
  TGI: 17.4 µM
SR leukemia
  GI50: 2.39 µM
  TGI: 6.63 µM
SW-620 colon
  GI50: 3.11 µM
  TGI: 23.5 µM
T-47D breast
  GI50: 2.59 µM
  TGI: 9.44 µM
TK-10 renal
  GI50: 3.49 µM
  TGI: > 100 µM
U251 CNS
  GI50: 3.1 µM
  TGI: 13.4 µM
UACC-257 melanoma
  GI50: 3.17 µM
  TGI: 19.9 µM
UACC-62 melanoma
  GI50: 1.83 µM
  TGI: 5.81 µM
UO-31 renal
  GI50: 2.42 µM
  TGI: 10.2 µM
